Results published in publication PMC6435658, “Investigation into the Molecular Mechanisms underlying the Anti-proliferative and Anti-tumorigenesis activities of Diosmetin against HCT-116 Human Colorectal Cancer” (Scientific Reports, 2019).
Values after ≈ are worked out from the molar mass of the structure shown.

How the values were obtained:
HCT-116 cells [1] = test: MTT cytotoxicity assay, HCT-116; format: cell-based, human; conditions: for IC50: Homo sapiens, MTT
Method: (§1) Cytotoxicity property of Dis against HCT-116 and CCD-841 cells were measured by MTT assay as described by Mossman[77]. Briefly, cells were treated with different concentration of Dis and 5-Fu (positive control) with serial dilution factor of 2 for 8 concentrations in 96 well-plate for different time points (24 h, 48 h and 72 h). Subsequently at the end of each time point 20 µl of MTT (5 mg/ml, Affymetrix,Cleveland, OH, USA) were added to each well followed by 4 h incubation. The solutions were aspirated after 4 h and 100 µl of DMSO were added to each well. Absorbance for each well was read at 570 nm as measured by using microplate reader (Tecan Infinite multimode, Männedorf, Switzerland). Cytotoxicity (cell death) was measured by using the following formula: Celldeath(%)=sampleOD−controlOD/controlOD100
(§2) This assay was performed in triplicates in three independent experiments. The cytotoxicity property of Dis was presented as IC50 value.

HT-29 cells = test: MTT cytotoxicity assay, HT-29; format: cell-based, human; conditions: for IC50: Homo sapiens, MTT
Method: [Worded in the source for another cell line; this cell line is reported under the same test.] as §1, §2

CCD-841 cells = test: MTT cytotoxicity assay, CCD-841 normal colon cells; format: cell-based; conditions: Homo sapiens, CCD-841 non cancerous cells
Method: as §1, §2

caspase 8 = test: Caspase-Glo 8 bioluminescent assay; format: cell-based, human; conditions: HCT-116, 24 h, 48 h, 72 h, time dependent
Method: To assess the effect of Dis on caspase cascades in treated cells, activities of caspase-Glo 3/7, caspase-Glo 8 and caspase-Glo 9 assays (Promega, Madison, WI, USA) were performed. Briefly, HCT-116 cells with the density of 10^4 cells/well were seeded in 96 well-plates. Cells were treated with Dis for 24 h, 48 h and 72 h. This assay was performed in triplicates for each time point. A total of 6 wells were preserved for samples without cells but with media and reagents as the blank samples, and for the untreated cells as negative control. At the end of incubation time, 100 µl caspase-glo mixture were added to each well and incubated for 1 h in the dark according to the manufacturer’s instructions. Optical density was measured via multimode microplate reader (Tecan Infinite, Männedorf, Switzerland).

HCT-116 cells [2] = test: Multiple cytotoxicity assay (Cellomics multiparameter cytotoxicity 3 kit); format: cell-based, human; conditions: HCT-116, Dis 3.58 µg/ml
Method: Cellomics multiparameter cytotoxicity 3 kit (Thermo Scientific™, Pittsburgh, PA, USA) was used to investigate the vital apoptotic events in HCT-116 cells in the presence of Dis. Cytotoxicity 3 assay was used to provide information about the changes in nuclear morphology, cell membrane integrity, cytochrome C release and mitochondrial outer membrane permeabilization (MOMP). HCT-116 cells were seeded in 24 well-plate and covered by a cover slide followed by treatment with Dis for 24 h, 48 h and 72 h. Treated cells were stained with YoYo dye (life technology, CA, USA) and Mitotracker dye (life technology, CA, USA) followed by fixation and blocking procedures according to the manufacture’s protocol. Primary cytochrome C (Thermo Scientific™, Pittsburgh, PA, USA) antibody and secondary DyLight 650 (Thermo Scientific™, Pittsburgh, PA, USA) were added to each well and incubated for 1 h in the dark. Hoechst 33342 dye (Thermo Scientific™, Pittsburgh, PA, USA) was added in the last step to stain the nuclei of the cells. Cells were washed and cover slides were transferred on the slide and introduced to confocal Leica TCS SP5 II microscope (Leica Microsystems, Mannheim, Germany). Intensity of each dye was measured by using LAS X software.

Colo205 = test system: Colo205; set-up: method as in PMID 19424633, PMID 27176768, PMID 26847170, PMID 20183323; conditions: Colo205, 24 h treatment; ref [10],[13],[15],[47]; cited from earlier work
HepG-2 = test system: HepG-2; set-up: method as in PMID 19424633, PMID 27176768, PMID 26847170, PMID 20183323; conditions: HepG-2, 24 h treatment; ref [10],[13],[15],[47]; cited from earlier work
MDA-MB 468 = test system: MDA-MB 468; set-up: method as in PMID 19424633, PMID 27176768, PMID 26847170, PMID 20183323; conditions: MDA-MB 468, 24 h treatment; ref [10],[13],[15],[47]; cited from earlier work

For COc1ccc(-c2cc(=O)c3c(O)cc(O)cc3o2)cc1O [Dis, Diosmetin], the IC50 (HCT-116 cells [1]; HCT-116, 24 h) was 5.56 ± 0.48 µg/mL (≈ 18.5 µM), the IC50 (HCT-116 cells [1]; HCT-116, 48 h) was 3.58 ± 0.58 µg/mL (≈ 11.9 µM) and the IC50 (HCT-116 cells [1]; HCT-116, 72 h) was 3.41 ± 0.64 µg/mL (≈ 11.4 µM). For the same compound, the “Selectivity Index (SI)” value (HCT-116 cells [1]; IC50 CCD-841 / IC50 HCT-116, 24 h) was 42.53, the “Selectivity Index (SI)” value (HCT-116 cells [1]; IC50 CCD-841 / IC50 HCT-116, 48 h) was 14.51 and the “Selectivity Index (SI)” value (HCT-116 cells [1]; IC50 CCD-841 / IC50 HCT-116, 72 h) was 11.88. It also gave an IC50 (HT-29 cells; HT-29, 24 h) of 44.5 ± 1.75 µg/mL (≈ 148 µM), an IC50 (HT-29 cells; HT-29, 48 h) of 17.6 ± 0.61 µg/mL (≈ 58.4 µM) and an IC50 (HT-29 cells; HT-29, 72 h) of 11.46 ± 0.1 µg/mL (≈ 38.2 µM). The “Selectivity Index (SI)” value (HT-29 cells; IC50 CCD-841 / IC50 HT-29, 24 h) was 5.31, the “Selectivity Index (SI)” value (HT-29 cells; IC50 CCD-841 / IC50 HT-29, 48 h) was 2.96 and the “Selectivity Index (SI)” value (HT-29 cells; IC50 CCD-841 / IC50 HT-29, 72 h) was 3.53. For the same compound, the IC50 (CCD-841 cells; 24 h) was 236 ± 9.99 µg/mL (≈ 788 µM), the IC50 (CCD-841 cells; 48 h) was 51.95 ± 0.11 µg/mL (≈ 173 µM) and the IC50 (CCD-841 cells; 72 h) was 40.5 ± 9.99 µg/mL (≈ 135 µM). For the same compound, the “cleavage of caspase 8” value (caspase 8) was “significantly increased”, the “Cytochrome C release” value (HCT-116 cells [2]) was “releases of Cytochrome C from mitochondria to cytosol” and the mitochondrial membrane potential (HCT-116 cells [2]; Mitotracker uptake) was “losses of the mitochondrial membrane potential”. For the same compound, the cell permeability (HCT-116 cells [2]; YoYo dye) was “increases”, the IC50 (Colo205) was 29 µg/mL (≈ 96.6 µM) and the IC50 (HepG-2) was 12 µg/mL (≈ 40 µM). The IC50 (MDA-MB 468) was 1.35 µg/mL (≈ 4.5 µM).
